We go through two compounds from publication PMC5591855, “d-Tubocurarine and Berbamine: Alkaloids That Are Permeant Blockers of the Hair Cell's Mechano-Electrical Transducer Channel and Protect from Aminoglycoside Toxicity” (Frontiers in Cellular Neuroscience, 2017).

In the test the test system is T1, mechano-electrical transducer (MET) channel.
T1 construct: native channel in CD-1 mouse cochlear outer hair cells (organotypic cultures)
Kind of test: whole-cell patch clamp of MET currents, extracellular block at -104 mV, […] Ca2+. Type of test: cell-based, Mus musculus. To be noted: read-out: Kd. On the technique in general: Patch clamp records ionic current or voltage across a cell membrane.

pIC50: −log10 of the molar value.

In the case of `COc1cc2c3cc1Oc1cc(ccc1O)C[C@@H]1c4c(cc(OC)c(O)c4Oc4ccc(cc4)C[C@@H]3N(C)CC2)CC[N+]1(C)C` [dTC, d-Tubocurarine], the pIC50 was 5.66.
On to berbamine, for which the pIC50 was 5.55.
